# Source: ChEMBL document CHEMBL3862033 (J Med Chem, 2016)
# Experiments:
# [1] = Stability of compound in pH 6.5 fasted state simulated intestinal fluid assessed as compound remaining measured after 2 hrs; format: ADME; settings: simulated gi fluid, pH 6.5, 2 h
# Adenosine receptor A2a = Adenosine receptor A2a (Homo sapiens, UniProt P29274); assay: Displacement of [3 H]2-[p-(2-carboxyethyl)phenyl-ethylamino]-5'-N-ethylcarboxamidoadenosine from recombinant human adenosine receptor A2A expressed in HEK293 cell membranes at 10 uM after 60 mins by liquid scintillation counting method relative to control
# [2] = target: Sodium-dependent dopamine transporter (Homo sapiens, UniProt Q01959); assay: Inhibition of human dopamine transporter expressed in HEK293 cells assessed as inhibition of dopamine uptake measured after 30 mins by fluorescence analysis; format: cell-based
# Cytochrome P450 1A2 = Cytochrome P450 1A2 (Homo sapiens, UniProt P05177); assay: Inhibition of CYP1A2 (unknown origin); format: ADME
# Cytochrome P450 3A4 = Cytochrome P450 3A4 (Homo sapiens, UniProt P08684); assay: Inhibition of CYP3A4 (unknown origin); format: ADME
# Cytochrome P450 2C19 = Cytochrome P450 2C19 (Homo sapiens, UniProt P33261); assay: Inhibition of CYP2C19 (unknown origin); format: ADME
# [3] = target: T1, 5-hydroxytryptamine receptor 2A (Homo sapiens, UniProt P28223); assay: Antagonist activity at human 5-HT2AR expressed in Flp-In HEK cells assessed as inhibition of serotonin induced calcium mobilization at 10 uM preincubated for 5 to 10 mins followed by serotonin addition by Fluo-4 dye based FLIPR assay relative to control; format: functional, cell-based; settings: HEK293
# [4] = target: T1, 5-hydroxytryptamine receptor 2A; assay: Agonist activity at human 5-HT2AR expressed in Flp-In HEK cells assessed as calcium mobilization at 10 uM measured for 2 mins by Fluo-4 dye based FLIPR assay; format: cell-based; settings: hek293, 2 min
# T1 sequence (P28223 whole entry): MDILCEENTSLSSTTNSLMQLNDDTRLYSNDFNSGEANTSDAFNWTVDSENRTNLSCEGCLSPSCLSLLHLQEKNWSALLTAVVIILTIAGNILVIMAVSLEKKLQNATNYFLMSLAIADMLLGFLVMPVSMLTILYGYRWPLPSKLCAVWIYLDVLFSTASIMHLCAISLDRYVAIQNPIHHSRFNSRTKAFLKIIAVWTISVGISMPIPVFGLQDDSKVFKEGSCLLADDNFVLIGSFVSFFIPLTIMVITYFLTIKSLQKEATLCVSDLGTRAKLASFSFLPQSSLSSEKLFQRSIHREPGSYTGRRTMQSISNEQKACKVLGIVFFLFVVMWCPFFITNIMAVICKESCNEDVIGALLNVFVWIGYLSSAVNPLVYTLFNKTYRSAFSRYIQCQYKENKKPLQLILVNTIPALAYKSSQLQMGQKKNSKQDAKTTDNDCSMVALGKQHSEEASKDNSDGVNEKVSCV
# Chain of Adenosine receptor A2a (P29274 whole entry): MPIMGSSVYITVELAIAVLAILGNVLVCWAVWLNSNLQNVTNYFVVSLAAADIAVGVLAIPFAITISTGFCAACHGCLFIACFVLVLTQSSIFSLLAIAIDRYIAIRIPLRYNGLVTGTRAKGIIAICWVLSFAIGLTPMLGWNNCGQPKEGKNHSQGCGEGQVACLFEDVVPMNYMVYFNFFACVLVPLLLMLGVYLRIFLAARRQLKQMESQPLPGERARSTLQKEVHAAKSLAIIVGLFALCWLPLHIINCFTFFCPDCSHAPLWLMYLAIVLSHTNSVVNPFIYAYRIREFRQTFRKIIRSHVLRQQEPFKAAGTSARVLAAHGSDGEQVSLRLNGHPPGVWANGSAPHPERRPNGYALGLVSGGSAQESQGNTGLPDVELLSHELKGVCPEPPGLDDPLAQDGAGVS
# Chain of Cytochrome P450 2C19 (P33261 whole entry): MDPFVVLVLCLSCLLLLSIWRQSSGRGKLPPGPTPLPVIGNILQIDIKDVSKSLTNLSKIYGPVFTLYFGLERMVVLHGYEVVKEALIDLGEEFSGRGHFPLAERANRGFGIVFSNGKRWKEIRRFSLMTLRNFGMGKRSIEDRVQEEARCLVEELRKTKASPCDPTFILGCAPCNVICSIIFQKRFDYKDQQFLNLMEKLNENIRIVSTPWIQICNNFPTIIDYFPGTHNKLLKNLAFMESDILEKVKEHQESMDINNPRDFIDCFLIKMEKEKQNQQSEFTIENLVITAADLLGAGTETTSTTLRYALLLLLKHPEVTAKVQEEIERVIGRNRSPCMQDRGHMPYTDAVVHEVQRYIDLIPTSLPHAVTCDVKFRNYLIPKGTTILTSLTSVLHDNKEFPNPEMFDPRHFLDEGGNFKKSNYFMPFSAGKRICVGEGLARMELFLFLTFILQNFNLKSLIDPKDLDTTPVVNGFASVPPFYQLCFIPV
# Chain of Sodium-dependent dopamine transporter (Q01959 whole entry): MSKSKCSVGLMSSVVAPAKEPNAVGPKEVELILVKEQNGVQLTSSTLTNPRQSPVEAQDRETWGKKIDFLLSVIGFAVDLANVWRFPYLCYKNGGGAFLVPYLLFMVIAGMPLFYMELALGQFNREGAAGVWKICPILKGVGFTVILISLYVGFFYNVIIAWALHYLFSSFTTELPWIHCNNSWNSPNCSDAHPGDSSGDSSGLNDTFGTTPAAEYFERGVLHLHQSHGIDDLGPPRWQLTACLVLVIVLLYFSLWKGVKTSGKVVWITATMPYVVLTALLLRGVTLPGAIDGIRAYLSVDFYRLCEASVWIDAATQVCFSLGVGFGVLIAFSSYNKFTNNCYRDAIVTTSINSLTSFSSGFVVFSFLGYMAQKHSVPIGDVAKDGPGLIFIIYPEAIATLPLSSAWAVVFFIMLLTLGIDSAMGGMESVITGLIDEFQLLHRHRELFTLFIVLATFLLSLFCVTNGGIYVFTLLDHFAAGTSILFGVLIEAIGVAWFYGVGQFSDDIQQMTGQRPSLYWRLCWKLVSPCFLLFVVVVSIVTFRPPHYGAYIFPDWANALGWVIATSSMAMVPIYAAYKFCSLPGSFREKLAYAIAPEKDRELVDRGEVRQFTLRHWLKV
# Chain of Cytochrome P450 3A4 (P08684 whole entry): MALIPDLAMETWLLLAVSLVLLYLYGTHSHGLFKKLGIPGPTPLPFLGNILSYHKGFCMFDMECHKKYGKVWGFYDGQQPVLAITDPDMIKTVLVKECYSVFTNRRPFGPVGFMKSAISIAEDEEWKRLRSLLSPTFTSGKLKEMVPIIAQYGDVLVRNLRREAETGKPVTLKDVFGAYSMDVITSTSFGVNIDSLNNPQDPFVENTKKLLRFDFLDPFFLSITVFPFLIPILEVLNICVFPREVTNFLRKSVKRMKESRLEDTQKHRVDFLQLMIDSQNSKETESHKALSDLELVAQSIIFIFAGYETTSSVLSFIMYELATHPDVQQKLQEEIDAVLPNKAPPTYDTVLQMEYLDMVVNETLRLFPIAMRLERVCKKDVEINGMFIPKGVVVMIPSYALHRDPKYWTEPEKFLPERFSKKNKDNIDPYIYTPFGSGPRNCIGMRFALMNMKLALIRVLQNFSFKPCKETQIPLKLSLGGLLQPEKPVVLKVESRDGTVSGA
# Chain of Cytochrome P450 1A2 (P05177 whole entry): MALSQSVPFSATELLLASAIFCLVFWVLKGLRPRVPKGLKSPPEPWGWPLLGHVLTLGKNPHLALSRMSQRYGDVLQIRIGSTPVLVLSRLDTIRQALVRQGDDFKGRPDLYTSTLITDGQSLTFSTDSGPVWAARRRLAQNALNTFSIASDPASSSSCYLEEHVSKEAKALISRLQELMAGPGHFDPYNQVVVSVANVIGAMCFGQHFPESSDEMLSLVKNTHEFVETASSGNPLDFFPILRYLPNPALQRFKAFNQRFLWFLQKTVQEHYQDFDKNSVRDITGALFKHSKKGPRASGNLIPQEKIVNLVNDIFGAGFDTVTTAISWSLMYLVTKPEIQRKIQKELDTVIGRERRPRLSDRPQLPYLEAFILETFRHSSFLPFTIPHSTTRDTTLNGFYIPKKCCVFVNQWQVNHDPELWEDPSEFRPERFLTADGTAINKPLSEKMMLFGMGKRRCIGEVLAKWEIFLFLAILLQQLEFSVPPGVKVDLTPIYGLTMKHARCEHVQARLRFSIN
structure (smiles),measurement,setting,value
COC(=O)[C@@]12C[C@@H]1[C@@H](n1cnc3c(NC(C4CC4)C4CC4)nc(Cl)nc31)[C@H](O)[C@@H]2O,Stability,[1],97%
same,inhibition,Adenosine receptor A2a,33%
OC[C@@]12C[C@@H]1[C@@H](n1cnc3c(NC(C4CC4)C4CC4)nc(Cl)nc31)[C@H](O)[C@@H]2O,Ki,[2],4.8 µM
CNC(=O)[C@@]12C[C@@H]1[C@@H](n1cnc3c(NC(C4CC4)C4CC4)nc(Cl)nc31)[C@H](O)[C@@H]2O,IC50,Cytochrome P450 1A2,> 30 µM
same,IC50,Cytochrome P450 3A4,> 30 µM
same,IC50,Cytochrome P450 2C19,> 30 µM
CCOC(=O)[C@@]12C[C@@H]1[C@@H](n1cnc3c(NC(C4CC4)C4CC4)nc(Cl)nc31)[C@H](O)[C@@H]2O,inhibition,[3],> 10%
same,Activity,[4],> 10%
